For data set [1] the following is noted: non-pregnant adults; cited from earlier work.
The nature of data set [2]: clinical. The settings on record: female, human, in vivo.
For data set [3] the following is noted: in vivo.
The conditions of data set [4]: for CL/F (oral clearance): all women not receiving lopinavir/ritonavir, median; for C0: pre-dose.
For data set [5] the following is noted: previous studies incl. initial analysis of P1026s data; cited from earlier work.
The test system of data set [6] is CYP3A4. The settings on record: cited from earlier work.
Setting [7] is: postpartum, with LPV/r, median (IQR).
The mark [8] stands for this setting: postpartum, without LPV/r, other regimens, median (IQR).
[9] abbreviates: postpartum, without LPV/r, with ATV/r, median (IQR).
[10] abbreviates: third trimester, with LPV/r, median (IQR).
The mark [11] stands for this setting: third trimester, without LPV/r, other regimens, median (IQR).
Where [12] appears, read: third trimester, without LPV/r, with ATV/r, median (IQR).

A word on the AUC(0-t): it is exposure summed from dosing to a finite time, without extrapolation to infinity. A word on the Cmax: it is the highest concentration seen after dosing. What is called half-life is the time in which the quantity being followed falls by half. Lower therefore signals fast loss.

Read-outs that look alike come from different tables or passages of the source.

For the molecule `C[C@H](Cn1cnc2c(N)ncnc21)OCP(=O)(O)O` [Tenofovir], the “exposure increased with concomitant lopinavir/ritonavir” value in data set [1] was 32%. Besides, the area under the curve AUC(0-t) in data set [2] (AUC0–24) stood at 2200 ng·h/mL. Also, the peak concentration (Cmax) in data set [2] (Cmax) stood at 257 ng/mL. The “AUC0–24 (exposure) lower in third trimester compared to postpartum” value in data set [3] (female, human) is listed as 27%. Moreover, the “decrease in AUC0–24 during third trimester compared to postpartum” value in data set [3] (female, human) worked out at 25%. Moreover, the “increase in CL/F during third trimester compared to postpartum” value in data set [3] (female, human) is listed as 33%. The “oral clearance higher in third trimester compared to postpartum” value in data set [3] (female, human, po) is 27%. Moreover, the “differences in AUC0–24, third trimester vs postpartum” value in data set [3] is on record as “did not reach statistical significance”. In data set [4] (female, human, in vivo, C24, third trimester, without LPV/r, with ATV/r, 24 hour post-dose, median (IQR)), this molecule came in with a concentration at 24 h of 47 ng/mL. The half-life in data set [4] (female, human, in vivo, t1/2, postpartum, with LPV/r, median (IQR)) was 12.5 h; in data set [4] (female, human, in vivo, t1/2, third trimester, with LPV/r, median (IQR)) it was 17.5 h. Also, the “CL/F (oral clearance)” value was determined as 48 L/h in data set [4] (postpartum) and 61 L/h in data set [4] (third trimester). In addition, the CL/F in data set [4] (setting [7]) was 49 (36 – 75) L/hr; in data set [4] (setting [8]), 49 (30 – 58) L/hr; in data set [4] (setting [9]) it was 48 (38 – 63) L/hr; in data set [4] (setting [10]), 46 (40 – 60) L/hr; in data set [4] (setting [11]) it was 57 (47 – 62) L/hr; in data set [4] (setting [12]) it was 64 (57 – 85) L/hr. Moreover, the Vd/F in data set [4] (setting [7]) is recorded as 1224 (643 – 1312) L/hr; in data set [4] (setting [8]) it was 757 (514 – 1133) L/hr; in data set [4] (setting [9]), 949 (676 – 1246) L/hr; in data set [4] (setting [10]) it was 1103 (973 – 1312) L/hr; in data set [4] (setting [11]) it was 1159 (1037 – 1709) L/hr; in data set [4] (setting [12]), 1284 (1120 – 2181) L/hr. Besides, the C0 was 59.4 (5.0 – 77.8) ng/mL in data set [4] (setting [7]); 74 (50 – 118) ng/mL in data set [4] (setting [8]); 60 (31 – 93) ng/mL in data set [4] (setting [9]); 70 (53 – 85) ng/mL in data set [4] (setting [10]); 54 (42 – 67) ng/mL in data set [4] (setting [11]); 48 (36 – 59) ng/mL in data set [4] (setting [12]). The t1/2 in data set [4] (setting [11]) was 15.9 (14.3 – 19.2) hr. Also, the “clearance higher in third trimester of pregnancy compared to postpartum” value in data set [5] was 22–39%. Also, the “exposure lower in third trimester of pregnancy compared to postpartum” value in data set [5] is recorded as 20–33%.

Consider `CC(C)(C)NC(=O)[C@@H]1C[C@@H]2CCCC[C@@H]2CN1C[C@@H](O)[C@H](Cc1ccccc1)NC(=O)[C@H](CC(N)=O)NC(=O)c1ccc2ccccc2n1` [saquinavir], for which the CYP3A4 inhibition entry in data set [6] is recorded as “weak inhibition”.
